Literature values in patent US10959921B2, “Emulsifying system for microemulsions with high skin tolerance” (Henkel AG & Co. KGaA, priority 2017, dated 2021).

Conditions: concentrations above about 1.5 wt. %

Substance: lauryl glucoside
- Skin tolerance in leave-on applications: skin intolerances
